US5227466A, “Insulin receptor binding site” (City of Hope, priority 1988, dated 1993)
Where a SMILES comes first, the peptide text is derived from it.

Target: ^125 I-insulin (Homo sapiens, UniProt P01308)
Assay: 125I-insulin binding to water suspension of the peptide, centrifugation
Description: To test for insulin binding, a water suspension of the peptide was incubated at room temperature with a tracer of ^125 I-insulin followed by simple centrifugation. […] The apparent dissociation constant was ~6×10^-7 M. Non-specific binding was negligible.

^125 I-insulin, sequence (P01308 25-54 limits assumed): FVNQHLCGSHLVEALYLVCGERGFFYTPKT
^125 I-insulin, sequence (P01308 90-110 limits assumed): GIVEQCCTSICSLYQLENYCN

Kd (displacement of ^125 I-insulin by unlabelled insulin (FIG. 4), read-out: apparent dissociation constant): ~600 nM
fraction of ^125 I-insulin tracer bound by the peptide (water suspension of the peptide, room temperature, centrifugation): up to 30%
SMILES: CC[C@H](C)[C@H](NC(=O)[C@@H](NC(=O)[C@H](CC(C)C)NC(=O)[C@H](C)NC(=O)[C@H](Cc1ccc(O)cc1)NC(=O)[C@H](CC(N)=O)NC(=O)[C@H](Cc1ccccc1)NC(=O)[C@H](Cc1ccccc1)NC(=O)[C@H](CC(C)C)NC(=O)[C@@H](N)CCCNC(=N)N)C(C)C)C(=O)N[C@@H](Cc1ccccc1)C(=O)N[C@@H](CCC(=O)O)C(=O)N[C@@H](CCSC)C(=O)N[C@H](C(=O)N[C@@H](Cc1c[nH]cn1)C(=O)N[C@@H](CC(C)C)C(=O)N[C@@H](CCCCN)C(=O)N[C@@H](CCC(=O)O)C(=O)O)C(C)C [Sequence I] (H-RLFFNYALVIFEMVHLKE-OH)
